In ChEMBL document CHEMBL1132828, “Pharmacophore identification of a specific CXCR4 inhibitor, T140, leads to development of effective anti-HIV agents with very high selectivity indexes” (Bioorg Med Chem Lett, 2000):

How the values were obtained:
MT4 [1] = test: Compound was tested for reduction of the viability of mock infected MT-4 cell in test-I; assay type: functional; conditions: Homo sapiens
[2] = tested on: Human immunodeficiency virus 1; test: Inhibition of HIV-induced cytopathogenicity in MT-4 cell (ZIDOVUDINE control); assay type: functional, organism-based; conditions: Human immunodeficiency virus 1, MT4
[3] = Ratio of cytotoxic concentration (CC50) in test-I to that of EC50 of compound; assay type: functional, Homo sapiens
[4] = Ratio of cytotoxic concentration (CC50) in test-II to that of EC50 of compound; assay type: functional, Homo sapiens
MT4 [5] = test: Compound was tested for reduction of the viability of mock infected MT-4 cell in test-II; assay type: functional; conditions: Homo sapiens
[6] = Ratio of cytotoxic concentration (CC50) in test-I to that of EC50 of compound; Not tested; assay type: functional

Row | Structure (SMILES) | CC50 (MT4 [1]) | EC50 [2] | Ratio [3] | Ratio [4] | CC50 (MT4 [5]) | Ratio [6]
1 | Cc1cn([C@H]2C[C@H](N=[N+]=[N-])[C@@H](CO)O2)c(=O)[nH]c1=O [ZIDOVUDINE] | 190 µM | 0.048 µM | 4000 | <410 | < 20 µM | –
2 | C[C@@H]1NC(=O)[C@H](Cc2ccc(O)cc2)NC(=O)[C@@H](NC(=O)[C@H](Cc2ccc3ccccc3c2)NC(=O)[C@H](CCCN=C(N)N)NC(=O)[C@@H](N)CCCN=C(N)N)CSSC[C@@H](C(=O)N[C@@H](CCCN=C(N)N)C(=O)O)NC(=O)[C@H](CCCNC(N)=O)NC(=O)[C@H](CCCN=C(N)N)NC(=O)[C@H](Cc2ccc(O)cc2)NC(=O)[C@@H]2CCCN2C(=O)[C@@H](CCCCN)NC(=O)[C@H](CCCCN)NC1=O | > 40 µM | – | – | – | – | >4500
3 | NCCCC[C@H]1NC(=O)[C@H](CCCNC(N)=O)NC(=O)[C@H](CCCN=C(N)N)NC(=O)[C@H](Cc2ccc(O)cc2)NC(=O)[C@@H](NC(=O)[C@H](Cc2ccc3ccccc3c2)NC(=O)[C@H](CCCN=C(N)N)NC(=O)[C@@H](N)CCCN=C(N)N)CSSC[C@@H](C(=O)N[C@@H](CCCN=C(N)N)C(=O)O)NC(=O)[C@H](CCCNC(N)=O)NC(=O)[C@H](CCCN=C(N)N)NC(=O)[C@H](Cc2ccc(O)cc2)NC(=O)[C@@H]2CCCN2C1=O | > 80 µM | – | >5000 | >16000 | 270 µM | –
4 | NCCCC[C@@H]1NC(=O)[C@H](CCCNC(N)=O)NC(=O)[C@H](Cc2ccc(O)cc2)NC(=O)[C@@H](NC(=O)[C@H](Cc2ccc3ccccc3c2)NC(=O)[C@H](CCCN=C(N)N)NC(=O)[C@@H](N)CCCN=C(N)N)CSSC[C@@H](C(=O)N[C@@H](CCCN=C(N)N)C(=O)O)NC(=O)[C@H](CCCNC(N)=O)NC(=O)[C@H](CCCN=C(N)N)NC(=O)[C@H](Cc2ccc(O)cc2)NC(=O)[C@@H]2CCCN2C(=O)[C@@H](CCCCN)NC1=O | > 80 µM | – | >29000 | 160000 | 310 µM | –
